Experimental data as given in BindingDB's records for patent WO2022098806 (MERCK SHARP & DOHME LLC, 2022).
Where “and” joins values, the source holds several entries; their conditions need not be identical. Equal entries are not always repeated.

These molecules were tested against Mitogen-activated protein kinase kinase kinase kinase 1 (Homo sapiens, UniProt Q92918) (assay: HPK1-SLP76 TR-FRET ASSAY).
Chain of Mitogen-activated protein kinase kinase kinase kinase 1 (Q92918 whole entry): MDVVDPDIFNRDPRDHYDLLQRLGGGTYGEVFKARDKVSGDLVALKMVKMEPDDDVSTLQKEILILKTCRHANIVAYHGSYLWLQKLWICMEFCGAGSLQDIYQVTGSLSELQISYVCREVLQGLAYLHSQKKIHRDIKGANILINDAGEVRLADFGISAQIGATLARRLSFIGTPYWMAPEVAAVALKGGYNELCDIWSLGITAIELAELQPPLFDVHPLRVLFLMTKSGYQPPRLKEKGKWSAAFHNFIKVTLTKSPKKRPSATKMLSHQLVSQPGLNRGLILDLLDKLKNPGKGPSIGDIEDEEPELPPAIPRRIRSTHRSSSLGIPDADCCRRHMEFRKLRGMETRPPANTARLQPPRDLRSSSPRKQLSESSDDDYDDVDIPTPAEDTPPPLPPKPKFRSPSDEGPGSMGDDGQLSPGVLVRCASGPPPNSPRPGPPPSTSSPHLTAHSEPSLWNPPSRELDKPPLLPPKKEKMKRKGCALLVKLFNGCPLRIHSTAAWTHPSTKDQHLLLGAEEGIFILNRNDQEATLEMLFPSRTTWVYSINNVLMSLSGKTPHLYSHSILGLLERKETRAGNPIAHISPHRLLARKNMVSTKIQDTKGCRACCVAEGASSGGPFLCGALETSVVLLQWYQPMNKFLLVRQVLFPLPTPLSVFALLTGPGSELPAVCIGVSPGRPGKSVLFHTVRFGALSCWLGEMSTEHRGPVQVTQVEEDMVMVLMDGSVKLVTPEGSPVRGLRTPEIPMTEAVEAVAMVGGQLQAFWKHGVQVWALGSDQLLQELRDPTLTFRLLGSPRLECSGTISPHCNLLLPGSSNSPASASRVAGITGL

Row | IC50 | Compound
1 | 0.06 nM | Cc1c(-c2cc3nc(Nc4ccc5c(c4)CN(C)CC5(C)C)ncc3c(N)c2F)cnc2c1NCCO2 [WO2022098806, Compound 2-150]
2 | 0.08 nM and 0.2 nM and 0.04 nM | Cc1c(-c2c(F)c(N)c3cnc(Nc4ccc5c(c4)CN(C(C)C)CC5)nc3c2Cl)cnc2c1NCCO2 [WO2022098806, Compound 2-102]
3 | 0.91 nM | COc1cc([C@H]2CCN(C)C2=O)ccc1Nc1ncc2c(N)c(F)c(-c3cnc4c(c3C)NCCO4)cc2n1 [WO2022098806, Compound 2-57]
4 | 0.05 nM | Cc1c(-c2cc3nc(Nc4ccc5c(c4)CN(C)CC5)ncc3c(N)c2F)cnc2c1NCCO2 [WO2022098806, Compound 2-70]
5 | 0.25 nM | COc1ccccc1Nc1ncc2c(N)c(F)c(-c3cnc4c(c3C)NCCO4)cc2n1 [WO2022098806, Compound 2-71]
6 | 0.05 nM | Cc1c(-c2cc3nc(Nc4ccc([C@@H]5CCN(C)C5=O)cc4)ncc3c(N)c2F)cnc2c1NCCO2 [WO2022098806, Compound 2-146]
7 | 0.33 nM | COc1cc2c(cc1Nc1ncc3c(N)c(F)c(-c4cnc5c(c4C)NCCO5)cc3n1)CN(C)CC2(C)C [WO2022098806, Compound 2-75]
8 | 0.02 nM | Cc1c(-c2cc3nc(Nc4ccc(CS(C)(=O)=O)nc4)ncc3c(N)c2F)cnc2c1NCCO2 [WO2022098806, Compound 2-84]
9 | 0.24 nM | Cc1c(-c2c(F)c(N)c3cnc(Nc4ccc(N5CCOC5=O)cc4)nc3c2Cl)cnc2c1NCCO2 [WO2022098806, Compound 2-159]
10 | 0.04 nM | CN1CCc2ccc(Nc3ncc4c(N)c(F)c(-c5cncc6[nH]ccc56)cc4n3)cc2C1 [WO2022098806, Compound 2-139]
11 | 0.07 nM | CNC(=O)C1(c2ccc(Nc3ncc4c(N)c(F)c(-c5cnc6c(c5C)NCCO6)cc4n3)cc2)CCCCC1 [WO2022098806, Compound 2-80]
12 | 2.81 nM | COc1cc2c(cc1Nc1ncc3c(N)cc(Nc4cc(CO)ccn4)cc3n1)CN(C)CC2 [WO2022098806, Compound 3-80]
13 | 0.07 nM | Cc1c(-c2cc3nc(Nc4ccc(CS(=O)(=O)C(C)C)cc4)ncc3c(N)c2F)cnc2c1NCCO2 [WO2022098806, Compound 2-157]
14 | 0.07 nM | CNC(=O)Cc1ccc(Nc2ncc3cc(F)c(-c4cnc5c(c4C)NCCO5)cc3n2)cc1 [WO2022098806, Compound 1-130]
15 | 0.13 nM | Cc1c(-c2cc3nc(Nc4ccc(CC(=O)N(C)C)cc4)ncc3cc2F)cnc2c1NCCO2 [WO2022098806, Compound 1-132]
16 | 0.16 nM | Cc1c(-c2cc3nc(Nc4ccc(CC(N)=O)cc4)ncc3cc2F)cnc2c1NCCO2 [WO2022098806, Compound 1-131]
17 | 11 nM | Cc1c(-c2cc3nc(Nc4ccccc4C4CC4)ncc3c(N)c2F)cnc2c1NCCO2 [WO2022098806, Compound 2-26]
18 | 771 nM | COc1cc2c(cc1Nc1ncc3ccc(N4CCCC(CN5CCCC5=O)C4)cc3n1)CN(C)CC2 (centres undefined) [WO2022098806, Compound 3-20]
19 | 20 nM | COc1cc2c(cc1Nc1ncc3ccc(-c4cccc(CO)c4)cc3n1)CNCC2 [WO2022098806, Compound 1-60]
20 | 0.1 nM | COc1cc2c(cc1Nc1ncc3c(N)c(F)c(-c4cnc5c(c4C)NCCO5)cc3n1)[C@H](C)N(C)CC2 [WO2022098806, Compound 2-36]
21 | 0.12 nM | CC(=O)N[C@@H]1CCc2cc(Nc3ncc4c(N)c(F)c(-c5cnc6c(c5C)NCCO6)cc4n3)ccc21 [WO2022098806, Compound 2-10]
22 | 865 nM | CC(=O)N1CCc2ccc(Nc3ncc4c(N)c(F)c(-c5cnc6c(c5C)NCCO6)cc4n3)cc2C1 [WO2022098806, Compound 2-12]

Row | IC50 | Compound
23 | 183 nM | COc1cc2c(cc1Nc1ncc3ccc(-c4cncc(NS(C)(=O)=O)c4)cc3n1)CNCC2 [WO2022098806, Compound 1-36]
24 | 807 nM | COc1cc2c(cc1Nc1ncc3ccc(N4CC5CCS(=O)(=O)C5C4)cc3n1)CN(C)CC2 (centres undefined) [WO2022098806, Compound 3-60]
25 | 9.36 nM | COc1cc2c(cc1Nc1ncc3ccc(N4CC(CO)OC4=O)cc3n1)CN(C)CC2 (centres undefined) [WO2022098806, Compound 3-4]
26 | 0.09 nM | Cc1c(-c2cc3nc(Nc4ccc(S(C)(=O)=O)cc4)ncc3c(N)c2F)cnc2c1NCCO2 [WO2022098806, Compound 2-17]
27 | 0.04 nM | CNC(=O)C1(c2ccc(Nc3ncc4c(N)c(F)c(-c5cnc6c(c5C)NCCO6)cc4n3)cc2)CCCC1 [WO2022098806, Compound 2-83]
28 | 0.01 nM | CCS(=O)(=O)Cc1ccc(Nc2ncc3c(N)c(F)c(-c4cnc5c(c4C)NCCO5)cc3n2)c(OC)c1 [WO2022098806, Compound 2-89]
29 | 0.06 nM | Cc1c(-c2cc3nc(Nc4ccc([C@H](C)S(C)(=O)=O)cc4)ncc3c(N)c2F)cnc2c1NCCO2 [WO2022098806, Compound 2-62]
30 | 0.07 nM | CC(=O)Nc1ccc(Nc2ncc3c(N)c(F)c(-c4cnc5c(c4C)NCCO5)cc3n2)cc1 [WO2022098806, Compound 2-15]
31 | 0.08 nM | CNC(=O)C(C)(C)c1ccc(Nc2ncc3c(N)c(F)c(-c4cnc5c(c4C)NCCO5)cc3n2)cc1 [WO2022098806, Compound 2-187]
32 | 0.13 nM | CCc1ccc(Nc2ncc3c(N)c(F)c(-c4cnc5c(c4C)NCCO5)cc3n2)cn1 [WO2022098806, Compound 2-173]
33 | 82 nM | COc1cc2c(cc1Nc1ncc3ccc(N4CC(CN)OC4=O)cc3n1)CN(C)CC2 (centres undefined) [WO2022098806, Compound 3-11]
34 | 0.08 nM | Cc1c(-c2cc3nc(Nc4ccc(CS(=O)(=O)C(C)C)cc4)ncc3cc2F)cnc2c1NCCO2 [WO2022098806, Compound 1-128]
35 | 0.04 nM | Cc1c(-c2cc3nc(Nc4ccc([C@H](C)S(C)(=O)=O)cc4)ncc3cc2F)cnc2c1NCCO2 [WO2022098806, Compound 1-124]
36 | 0.03 nM | Cc1c(-c2cc3nc(Nc4ccc5c(c4)C4CC5CN4C)ncc3c(N)c2F)cnc2c1NCCO2 (centres undefined) [WO2022098806, Compound 2-79]
37 | 0.1 nM | COc1cc(CS(=O)(=O)C(C)C)ccc1Nc1ncc2c(N)c(F)c(-c3cnc4c(c3C)NCC(C)(C)O4)cc2n1 [WO2022098806, Compound 2-168]
38 | 0.15 nM | COc1cc2c(cc1Nc1ncc3c(N)c(F)c(-c4cnc5c(c4C)NCCO5)cc3n1)[C@@H](C)N(C)CC2 [WO2022098806, Compound 2-35]
39 | 100 nM | Cc1c(-c2cc3nc(Nc4cccc5c4CC(C)(C)N(C)C5)ncc3c(N)c2F)cnc2c1NCCO2 [WO2022098806, Compound 2-127]
40 | 0.09 nM | Cc1c(-c2ccc3cnc(Nc4ccc(CS(=O)(=O)C(C)C)cc4)nc3c2)cnc2c1NCCO2 [WO2022098806, Compound 1-129]
41 | 0.06 nM | COc1cc2c(cc1Nc1ncc3c(N)c(F)c(-c4cnc5c(c4C)NCCO5)c(Cl)c3n1)CN(C)CC21CC1 [WO2022098806, Compound 2-169]
42 | 203 nM | COc1cc2c(cc1Nc1ncc3ccc(-c4cccc(NCC(C)=O)c4)cc3n1)CN(C)CC2 [WO2022098806, Compound 1-98]
43 | 73 nM | COc1cc2c(cc1Nc1ncc3ccc(NCC4CCS(=O)(=O)C4)cc3n1)CN(C)CC2 (centres undefined) [WO2022098806, Compound 3-37]
44 | 0.08 nM | Cc1c(-c2cc3nc(Nc4ccc5c(c4)C(C)(C)OC5=O)ncc3c(N)c2F)cnc2c1NCCO2 [WO2022098806, Compound 2-41]
